In article PMC10674894 (Viruses, 2023):

How the values were obtained:
CHIKV DRDE-07 = assay: In vitro screening against CHIKV (CPE inhibition and MTT cell viability); assay type: cell-based, chikungunya virus; settings: for % Cell viability / CPE: Table S1, CHIKV-infected Vero cells; for % Cell viability / Cell Viability: 72 hpi; for % Cell viability: MTT assay; for CPE: arbitrary score of cytopathic effect at >48 hpi; for Cell Viability: CHIKV-infected Vero cells treated at MNTD, MTT, cell control + DMSO = 100%
Vero cells = assay: Cytotoxicity MTT assay in Vero cells (MNTD, CC50); assay type: cell-based, African green monkey
[1] = maximum nontoxic dose in Vero cells, MTT

Row | Compound | % Cell viability (CHIKV DRDE-07) [%] | CPE (CHIKV DRDE-07) | MNTD (Vero cells; Table S1, Vero cells) [µM] | Cell Viability (CHIKV DRDE-07) [%] | MNTD (Vero cells; [1]) [µM]
1 | COc1ccc(-c2nc(CC(C)=O)no2)cc1 [DCR76, 1-[5-(4-methoxyphenyl)-1,2,4-oxadiazol-3-yl]propan-2-one] | 19.42 | ++++ (>60% (++++)) | 125 | – | –
2 | COc1ccc(/C(=N\NC(=O)c2ccncc2)c2ccccc2)cc1 [DCR53, N'-[(1Z)-(4-methoxyphenyl)(phenyl)methylidene]pyridine-4-carbohydrazide] | 11.42 | ++++ (>60% (++++)) | 31.25 | – | –
3 | C/C(=N\NC(=O)c1cccnc1)c1ccccc1N [DCR46, (E)-2-(1-(2-nicotinoylhydrazono)ethyl)benzenaminium] | 27.31 | ++++ (>60% (++++)) | 31.25 | – | –
4 | CC(=O)NNC(=O)c1cccnc1 [DCR7, N'-acetylnicotinohydrazide] | 20.31 | ++++ (>60% (++++)) | 62.5 | – | –
5 | Nc1nc(N)c2c(F)cccc2n1 [DCR 135, 5-fluoro-quinazoline-2,4-diamine] | – | ++ (50-30% (++)) | 250 | 61 | 250
6 | O=C(NNC(=O)c1ccc(Cl)cc1)c1ccncc1 [DCR11, N'-(4-chlorobenzoyl)isonicotinohydrazide] | 22.85 | ++++ (>60% (++++)) | 31.25 | – | –
7 | O=C(N/N=C/c1ccccc1Br)c1ccncc1 [DCR38, (E)-N'-(2-bromobenzylidene)isonicotinohydrazide] | 25.1 | ++++ (>60% (++++)) | 31.25 | – | –
8 | COc1ccc(C2NC(=O)NC(C)=C2C(=O)OCc2ccc(Cl)cc2)cc1 (centres unmarked) [DCR100, (4-chlorophenyl)methyl 4-(4-methoxyphenyl)-6-methyl-2-oxo-1,2,3,4-tetrahydropyrimidine-5-carboxylate] | 12.84 | ++++ (>60% (++++)) | 323.15 | – | –
9 | O=C(N/N=C/c1cccc(Br)c1)c1cccnc1 [DCR22, (E)-N'-(3-bromobenzylidene)nicotinohydrazide] | 19.28 | ++++ (>60% (++++)) | 15.6 | – | –
10 | CC1=C(C(=O)OCCN(C)C)C(c2ccc(N(C)C)cc2)NC(=O)N1 (centres unmarked) [DCR109, 2‐(dimethylamino)ethyl 4‐[4‐(dimethylamino)phenyl]‐6‐methyl‐2‐oxo‐1,2,3,4‐tetrahydropyrimidine‐5‐carboxylate] | 15.11 | ++++ (>60% (++++)) | 62.5 | – | –
11 | C#CCOC(=O)C1=C(C)NC(=O)NC1c1ccc(CC)cc1 (centres unmarked) [DCR87, prop-2-yn-1-yl 4-(4-ethylphenyl)-6-methyl-2-oxo-1,2,3,4-tetrahydropyrimidine-5-carboxylate] | 11.61 | ++++ (>60% (++++)) | 104.58 | – | –
12 | CC1=C(C(=O)OCC[N+](C)(C)C)C(c2ccc(C)cc2)NC(=O)N1 (centres unmarked) [DCR105, N,N,N-trimethyl-2-({[6-methyl-4-(4-methylphenyl)-2-oxo-1,2,3,4-tetrahydropyrimidin-5-yl]carbonyl}oxy)ethanaminium] | 2.45 | ++++ (>60% (++++)) | 125 | – | –
13 | COc1ccc(Br)cc1-c1cc(-c2ccc(O)cc2)nn1C(=O)c1cccnc1 [DCR61, 4-[5-(5-bromo-2-methoxyphenyl)-1-(pyridine-3-carbonyl)-1H-pyrazol-3-yl]phenol] | 12.22 | ++++ (>60% (++++)) | 31.25 | – | –
14 | COc1ccc(C2NC(=O)NC(C)=C2C(=O)OCc2ccccc2)cc1 (centres unmarked) [DCR102, benzyl 4-(4-methoxyphenyl)-6-methyl-2-oxo-1,2,3,4-tetrahydropyrimidine-5-carboxylate] | 8.11 | ++++ (>60% (++++)) | 250 | – | –
15 | C=C(C)CCOC(=O)C1=C(C)NC(=O)NC1c1ccc(OC)cc1 (centres unmarked) [DCR103, 3-methylbut-3-en-1-yl 4-(4-methoxyphenyl)-6-methyl-2-oxo-1,2,3,4-tetrahydropyrimidine-5-carboxylate] | 21.11 | ++++ (>60% (++++)) | 250 | – | –
16 | O=C(N/N=C/c1ccc(Cl)cc1)c1ccncc1 [DCR40, (E)-N'-(4-chlorobenzylidene)isonicotinohydrazide] | 5.23 | ++++ (>60% (++++)) | 31.25 | – | –
17 | COc1cc(/C=N/NC(=O)c2cccnc2)cc(OC)c1OC [DCR27, (E)-N'-(3,4,5-trimethoxybenzylidene)nicotinohydrazide] | 21.26 | ++++ (>60% (++++)) | 31.25 | – | –
18 | CCOc1cc(/C=N/NC(=O)c2ccncc2)ccc1O [DCR33, (E)-N'-(3-ethoxy-4-hydroxybenzylidene)isonicotinohydrazide] | 0 | ++++ (>60% (++++)) | 62.5 | – | –

Row | Compound | % Cell viability (CHIKV DRDE-07) [%] | CPE (CHIKV DRDE-07) | MNTD (Vero cells; Table S1, Vero cells) [µM] | Cell Viability (CHIKV DRDE-07) [%] | MNTD (Vero cells; [1]) [µM]
19 | C/C(=N\NC(=O)c1ccncc1)c1ccccc1O [DCR44, (E)-N'-(1-(2-hydroxyphenyl)ethylidene)isonicotinohydrazide] | 18.88 | ++++ (>60% (++++)) | 31.25 | – | –
20 | CCOc1cc(/C=N/NC(=O)c2cccnc2)ccc1O [DCR18, (E)-N'-(3-ethoxy-4-hydroxybenzylidene)nicotinohydrazide] | 15.39 | ++++ (>60% (++++)) | 31.25 | – | –
21 | COc1ccc(C2NC(=O)NC(C)=C2C(=O)OCC(C)C)cc1 (centres unmarked) [DCR99, 2-methylpropyl 4-(4-methoxyphenyl)-6-methyl-2-oxo-1,2,3,4-tetrahydropyrimidine-5-carboxylate] | 11.29 | ++++ (>60% (++++)) | 392.64 | – | –
22 | O=C(N/N=C/c1ccco1)c1cccnc1 [DCR21, (E)-N'-(furan-2-ylmethylene)nicotinohydrazide] | 0 | ++++ (>60% (++++)) | 62.5 | – | –
23 | CCc1ccc(C2c3c(ccc4ccccc34)Oc3ccc4ccccc4c32)cc1 [DCR118, 2‐(4‐ethylphenyl)‐13‐oxapentacyclo[12.8.0.0³,¹².0⁴,⁹.0¹⁷,²²]docosa‐1(14),3,5,7,9,11,15,17(22),18,20‐decaene] | 14.23 | ++++ (>60% (++++)) | 31.25 | – | –
24 | O=C(N/N=C/c1ccc(Cl)cc1Cl)c1cccnc1 [DCR26, (E)-N'-(2,4-dichlorobenzylidene)nicotinohydrazide] | 26.11 | ++++ (>60% (++++)) | 31.25 | – | –
25 | O=C1NC(c2ccc(Cl)cc2)c2c(ccc3ccccc23)O1 (centres unmarked) [DCR64, 1-(4-chlorophenyl)-1H,2H,3H-naphtho[1,2-e][1,3]oxazin-3-one] | -3.8 | ++++ (>60% (++++)) | 31.25 | – | –
26 | O=C(N/N=C/c1ccco1)c1ccncc1 [DCR36, (E)-N'-(furan-2-ylmethylene)isonicotinohydrazide] | 5 | ++++ (>60% (++++)) | 62.5 | – | –
27 | C#CCOC(=O)C1=C(C)NC(=O)NC1c1ccc(F)cc1 (centres unmarked) [DCR90, prop-2-yn-1-yl 4-(4-fluorophenyl)-6-methyl-2-oxo-1,2,3,4-tetrahydropyrimidine-5-carboxylate] | 12.59 | ++++ (>60% (++++)) | 433.62 | – | –
28 | CC1(C)CC(=O)C2=C(C1)OC1=C(C(=O)CC(C)(C)C1)C2c1ccc(Cl)cc1 [DCR122, 9‐(4‐chlorophenyl)‐3,3,6,6‐tetramethyl‐2,3,4,5,6,7,8,9‐octahydro‐1H‐xanthene‐1,8‐dione] | 11.09 | ++++ (>60% (++++)) | 31.25 | – | –
29 | C#CCOC(=O)C1=C(C)NC(=O)NC1c1ccc(OC)cc1 (centres unmarked) [DCR86, prop-2-yn-1-yl 4-(4-methoxyphenyl)-6-methyl-2-oxo-1,2,3,4-tetrahydropyrimidine-5-carboxylate] | 10.59 | ++++ (>60% (++++)) | 208.12 | – | –
30 | COc1cccc2nc(N)nc(N)c12 [DCR 139, 5-methoxy-quinazoline-2,4-diamine] | – | ++ (50-30% (++)) | 250 | 57 | 250
31 | CC1(C)CC(=O)C2=C(C1)OC1=C(C(=O)CC(C)(C)C1)C2c1cccc(O)c1 [DCR123, 9‐(3‐hydroxyphenyl)‐3,3,6,6‐tetramethyl‐2,3,4,5,6,7,8,9‐octahydro‐1H‐xanthene‐1,8‐dione] | 12.01 | ++++ (>60% (++++)) | 125 | – | –
32 | O=C(O)c1ccc(-c2cc(-c3ccc(O)cc3)nn2C(=O)c2cccnc2)cc1 [DCR62, 4-[3-(4-hydroxyphenyl)-1-(pyridine-3-carbonyl)-1H-pyrazol-5-yl]benzoic acid] | -27.93 | ++++ (>60% (++++)) | 31.25 | – | –
33 | O=C(CCl)NNC(=O)c1cccnc1 [DCR8, N'-(2-chloroacetyl)nicotinohydrazide] | 13.8 | ++++ (>60% (++++)) | 31.25 | – | –
34 | O=C(NNC(=O)c1ccncc1)c1ccccc1 [DCR9, N'-benzoylisonicotinohydrazide] | 9.92 | ++++ (>60% (++++)) | 31.25 | – | –
35 | Cc1ccc(-c2cc(-c3ccc(O)cc3)nn2C(=O)c2cccnc2)cc1 [DCR56, 4-[5-(4-methylphenyl)-1-(pyridine-3-carbonyl)-1H-pyrazol-3-yl]phenol] | 24.2 | ++++ (>60% (++++)) | 31.25 | – | –
36 | Clc1ccc(C2c3c(ccc4ccccc34)Oc3ccc4ccccc4c32)cc1 [DCR115, 2‐(4‐chlorophenyl)‐13‐oxapentacyclo[12.8.0.0³,¹².0⁴,⁹.0¹⁷,²²]docosa‐1(14),3,5,7,9,11,15,17(22),18,20‐decaene] | 17.1 | ++++ (>60% (++++)) | 125 | – | –
